{
  "source": "paper PMC3179953",
  "about": "“In Mycoplasma hominis the OppA-mediated cytoadhesion depends on its ATPase activity” (BMC Microbiology, 2011)",
  "biological_target": "T1, OppA^WT (OppA, P100), wild type purified from M. hominis (Metamycoplasma hominis, UniProt Q49551)",
  "T1 construct": "native lipoprotein, solubilised with N-dodecylmaltoside from membranes and isolated with sepharose-coupled antibody DC10; phosphorylated",
  "T1 sequence (Q49551 entry or part of it)": "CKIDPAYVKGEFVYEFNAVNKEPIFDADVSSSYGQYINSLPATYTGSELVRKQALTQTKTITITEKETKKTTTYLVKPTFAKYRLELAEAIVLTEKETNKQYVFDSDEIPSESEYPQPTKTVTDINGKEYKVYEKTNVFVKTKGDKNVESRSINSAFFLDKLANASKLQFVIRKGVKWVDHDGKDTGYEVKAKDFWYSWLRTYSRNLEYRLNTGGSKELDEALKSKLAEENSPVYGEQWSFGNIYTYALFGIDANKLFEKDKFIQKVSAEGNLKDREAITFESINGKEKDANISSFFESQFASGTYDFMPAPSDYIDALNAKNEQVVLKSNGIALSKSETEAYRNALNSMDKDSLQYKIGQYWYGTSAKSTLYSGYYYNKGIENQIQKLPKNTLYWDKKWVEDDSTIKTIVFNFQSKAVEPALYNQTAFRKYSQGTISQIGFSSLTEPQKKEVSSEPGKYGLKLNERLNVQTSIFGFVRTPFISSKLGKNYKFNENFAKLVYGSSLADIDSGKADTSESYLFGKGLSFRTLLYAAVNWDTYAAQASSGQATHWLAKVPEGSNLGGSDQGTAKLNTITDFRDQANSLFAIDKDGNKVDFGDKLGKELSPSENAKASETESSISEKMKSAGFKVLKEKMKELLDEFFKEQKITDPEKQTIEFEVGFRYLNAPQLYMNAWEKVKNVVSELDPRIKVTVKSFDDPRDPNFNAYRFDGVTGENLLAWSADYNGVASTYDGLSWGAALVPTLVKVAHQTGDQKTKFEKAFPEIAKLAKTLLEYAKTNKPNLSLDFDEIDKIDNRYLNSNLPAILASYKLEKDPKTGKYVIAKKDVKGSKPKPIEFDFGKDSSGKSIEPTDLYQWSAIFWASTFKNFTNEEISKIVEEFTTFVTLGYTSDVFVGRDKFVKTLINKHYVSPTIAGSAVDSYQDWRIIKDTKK",
  "test": "ammonium molybdate ATPase assay, inhibitor preincubated […] min",
  "type": "biochemical",
  "conditions": "200 μM inhibitor",
  "data": [
    {"molecule": "O=S(=O)(O)c1cc(N=C=S)ccc1/C=C/c1ccc(N=C=S)cc1S(=O)(=O)O", "note": "[DIDS, 4,4'-diisothiocyano-2,2'-stilbene-disulfonic acid]", "values": [
      {"measurement": "relative ATPase activity at 200 μM", "result": "OppA was neither able to hydrolyze ATP (Figure 3A)"}
    ]}
  ]
}
